Experimental data from the kinase profiling compilation of Christmann-Franck et al. (2016).

How the values were obtained:
Test in all cases: KINOMEscan competition binding
Conditions in all cases: compound 10.0 µM
MAP2K1 (human) = MAP2K1 (human) (UniProt Q02750)
FGFR1 (human) = FGFR1 (human) (UniProt P11362)
MYO3B (human) = MYO3B (human) (UniProt Q8WXR4)
FLT1 (human) = FLT1 (human) (UniProt P17948)
IGF1R (human) = IGF1R (human) (UniProt P08069)
PIK3C2B (human) = PIK3C2B (human) (UniProt O00750)
ITK (human) = ITK (human) (UniProt Q08881)
ITK (human), sequence (Q08881 whole entry, looked up): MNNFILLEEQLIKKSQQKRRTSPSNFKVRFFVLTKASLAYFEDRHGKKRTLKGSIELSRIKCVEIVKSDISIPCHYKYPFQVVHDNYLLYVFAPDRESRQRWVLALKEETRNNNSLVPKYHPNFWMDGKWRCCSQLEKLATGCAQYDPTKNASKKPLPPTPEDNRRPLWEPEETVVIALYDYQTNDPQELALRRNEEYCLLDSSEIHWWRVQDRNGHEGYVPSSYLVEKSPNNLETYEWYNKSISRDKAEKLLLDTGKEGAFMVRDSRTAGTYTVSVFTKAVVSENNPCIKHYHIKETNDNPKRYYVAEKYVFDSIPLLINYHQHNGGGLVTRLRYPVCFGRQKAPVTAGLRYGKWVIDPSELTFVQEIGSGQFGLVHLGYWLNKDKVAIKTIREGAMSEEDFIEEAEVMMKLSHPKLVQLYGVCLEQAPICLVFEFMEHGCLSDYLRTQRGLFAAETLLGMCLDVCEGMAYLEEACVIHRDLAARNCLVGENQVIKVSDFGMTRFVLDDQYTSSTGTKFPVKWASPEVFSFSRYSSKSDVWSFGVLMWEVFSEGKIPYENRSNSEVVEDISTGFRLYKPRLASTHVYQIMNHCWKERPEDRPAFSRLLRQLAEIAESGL

DAPK2 (human) = DAPK2 (human) (UniProt Q9UIK4)
CDK3 (human) = CDK3 (human) (UniProt Q00526)
CDK3 (human), sequence (Q00526 whole entry, looked up): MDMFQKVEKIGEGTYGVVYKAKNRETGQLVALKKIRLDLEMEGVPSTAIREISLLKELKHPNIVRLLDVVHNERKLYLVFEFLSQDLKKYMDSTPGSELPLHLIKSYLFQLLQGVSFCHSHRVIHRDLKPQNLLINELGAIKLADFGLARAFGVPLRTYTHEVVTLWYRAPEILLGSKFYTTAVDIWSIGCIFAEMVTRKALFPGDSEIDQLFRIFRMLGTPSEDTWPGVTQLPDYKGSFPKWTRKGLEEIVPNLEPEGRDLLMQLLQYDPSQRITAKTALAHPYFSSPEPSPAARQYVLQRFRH

CAMK4 (human) = CAMK4 (human) (UniProt Q16566)
CAMK1D (human) = CAMK1D (human) (UniProt Q8IU85)
CAMK1D (human), sequence (Q8IU85 whole entry, looked up): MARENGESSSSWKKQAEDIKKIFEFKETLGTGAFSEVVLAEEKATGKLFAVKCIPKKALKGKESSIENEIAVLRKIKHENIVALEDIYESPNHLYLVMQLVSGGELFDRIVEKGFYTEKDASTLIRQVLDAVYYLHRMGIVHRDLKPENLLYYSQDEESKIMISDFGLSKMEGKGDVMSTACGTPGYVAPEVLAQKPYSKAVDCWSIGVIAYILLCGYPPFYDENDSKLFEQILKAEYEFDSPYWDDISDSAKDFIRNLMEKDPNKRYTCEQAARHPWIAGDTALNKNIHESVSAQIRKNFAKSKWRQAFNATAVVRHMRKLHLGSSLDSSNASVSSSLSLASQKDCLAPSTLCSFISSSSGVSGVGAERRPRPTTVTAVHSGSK

MAP3K5 (human) = MAP3K5 (human) (UniProt Q99683)
PRKD1 (human) = PRKD1 (human) (UniProt Q15139)
HIPK1 (human) = HIPK1 (human) (UniProt Q86Z02)
SLK (human) = SLK (human) (UniProt Q9H2G2)
PRKAA1 (human) = PRKAA1 (human) (UniProt Q13131)
MUSK (human) = MUSK (human) (UniProt O15146)
MUSK (human), sequence (O15146 whole entry, looked up): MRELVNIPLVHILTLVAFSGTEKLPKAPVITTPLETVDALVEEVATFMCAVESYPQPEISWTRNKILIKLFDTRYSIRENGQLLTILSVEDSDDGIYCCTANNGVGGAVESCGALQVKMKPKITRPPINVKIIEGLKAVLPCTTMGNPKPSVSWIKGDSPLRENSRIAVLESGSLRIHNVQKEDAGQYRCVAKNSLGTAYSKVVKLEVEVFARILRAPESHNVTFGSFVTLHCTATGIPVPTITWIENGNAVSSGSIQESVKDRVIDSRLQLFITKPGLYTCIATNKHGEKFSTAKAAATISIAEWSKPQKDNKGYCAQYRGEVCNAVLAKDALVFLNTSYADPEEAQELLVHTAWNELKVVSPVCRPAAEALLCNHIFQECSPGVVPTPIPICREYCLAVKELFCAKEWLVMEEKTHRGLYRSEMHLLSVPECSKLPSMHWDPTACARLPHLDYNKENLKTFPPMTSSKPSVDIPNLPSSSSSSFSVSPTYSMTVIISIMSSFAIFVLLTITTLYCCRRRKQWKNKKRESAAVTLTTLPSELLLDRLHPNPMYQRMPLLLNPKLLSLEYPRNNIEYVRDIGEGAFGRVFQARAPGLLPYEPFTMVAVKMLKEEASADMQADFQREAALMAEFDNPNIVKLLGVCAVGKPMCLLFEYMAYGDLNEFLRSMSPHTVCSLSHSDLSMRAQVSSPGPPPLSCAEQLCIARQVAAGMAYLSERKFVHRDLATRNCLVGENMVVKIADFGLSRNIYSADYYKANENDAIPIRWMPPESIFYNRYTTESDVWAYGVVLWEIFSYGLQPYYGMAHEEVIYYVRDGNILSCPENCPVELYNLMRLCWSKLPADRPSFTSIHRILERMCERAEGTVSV

EPHA2 (human) = EPHA2 (human) (UniProt P29317)
BMPR2 (human) = BMPR2 (human) (UniProt Q13873)
CLK1 (human) = CLK1 (human) (UniProt P49759)
PRKD2 (human) = PRKD2 (human) (UniProt Q9BZL6)
TXK (human) = TXK (human) (UniProt P42681)
ULK3 (human) = ULK3 (human) (UniProt Q6PHR2)
MERTK (human) = MERTK (human) (UniProt Q12866)
INSR (human) = INSR (human) (UniProt P06213)
LATS2 (human) = LATS2 (human) (UniProt Q9NRM7)
RPS6KA1 KD1 (human) = RPS6KA1 KD1 (human) (UniProt Q15418)
CLK2 (human) = CLK2 (human) (UniProt P49760)
DCLK3 (human) = DCLK3 (human) (UniProt Q9C098)
PKN2 (human) = PKN2 (human) (UniProt Q16513)
MAP2K3 (human) = MAP2K3 (human) (UniProt P46734)
CHUK (human) = CHUK (human) (UniProt O15111)
MAP3K10 (human) = MAP3K10 (human) (UniProt Q02779)
RPS6KA6 KD1 (human) = RPS6KA6 KD1 (human) (UniProt Q9UK32)
STK32B (human) = STK32B (human) (UniProt Q9NY57)
CHEK1 (human) = CHEK1 (human) (UniProt O14757)
CAMK1G (human) = CAMK1G (human) (UniProt Q96NX5)
FGR (human) = FGR (human) (UniProt P09769)
FGR (human), sequence (P09769 whole entry, looked up): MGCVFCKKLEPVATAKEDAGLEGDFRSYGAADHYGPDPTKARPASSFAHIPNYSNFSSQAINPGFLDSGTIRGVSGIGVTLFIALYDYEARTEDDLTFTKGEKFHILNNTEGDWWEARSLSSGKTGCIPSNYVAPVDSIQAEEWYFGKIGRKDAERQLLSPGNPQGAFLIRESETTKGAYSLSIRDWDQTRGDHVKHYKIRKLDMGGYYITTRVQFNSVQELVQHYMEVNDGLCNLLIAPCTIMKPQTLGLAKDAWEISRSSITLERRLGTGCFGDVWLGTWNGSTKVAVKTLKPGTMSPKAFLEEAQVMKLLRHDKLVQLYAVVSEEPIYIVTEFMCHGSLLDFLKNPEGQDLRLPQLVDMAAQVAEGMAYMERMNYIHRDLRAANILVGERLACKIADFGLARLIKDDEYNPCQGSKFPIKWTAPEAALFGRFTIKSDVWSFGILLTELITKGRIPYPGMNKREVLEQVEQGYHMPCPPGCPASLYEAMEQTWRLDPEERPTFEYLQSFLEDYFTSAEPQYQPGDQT

ROCK2 (human) = ROCK2 (human) (UniProt O75116)
MKNK2 (human) = MKNK2 (human) (UniProt Q9HBH9)

MYO3B (human), sequence (Q8WXR4 whole entry, looked up): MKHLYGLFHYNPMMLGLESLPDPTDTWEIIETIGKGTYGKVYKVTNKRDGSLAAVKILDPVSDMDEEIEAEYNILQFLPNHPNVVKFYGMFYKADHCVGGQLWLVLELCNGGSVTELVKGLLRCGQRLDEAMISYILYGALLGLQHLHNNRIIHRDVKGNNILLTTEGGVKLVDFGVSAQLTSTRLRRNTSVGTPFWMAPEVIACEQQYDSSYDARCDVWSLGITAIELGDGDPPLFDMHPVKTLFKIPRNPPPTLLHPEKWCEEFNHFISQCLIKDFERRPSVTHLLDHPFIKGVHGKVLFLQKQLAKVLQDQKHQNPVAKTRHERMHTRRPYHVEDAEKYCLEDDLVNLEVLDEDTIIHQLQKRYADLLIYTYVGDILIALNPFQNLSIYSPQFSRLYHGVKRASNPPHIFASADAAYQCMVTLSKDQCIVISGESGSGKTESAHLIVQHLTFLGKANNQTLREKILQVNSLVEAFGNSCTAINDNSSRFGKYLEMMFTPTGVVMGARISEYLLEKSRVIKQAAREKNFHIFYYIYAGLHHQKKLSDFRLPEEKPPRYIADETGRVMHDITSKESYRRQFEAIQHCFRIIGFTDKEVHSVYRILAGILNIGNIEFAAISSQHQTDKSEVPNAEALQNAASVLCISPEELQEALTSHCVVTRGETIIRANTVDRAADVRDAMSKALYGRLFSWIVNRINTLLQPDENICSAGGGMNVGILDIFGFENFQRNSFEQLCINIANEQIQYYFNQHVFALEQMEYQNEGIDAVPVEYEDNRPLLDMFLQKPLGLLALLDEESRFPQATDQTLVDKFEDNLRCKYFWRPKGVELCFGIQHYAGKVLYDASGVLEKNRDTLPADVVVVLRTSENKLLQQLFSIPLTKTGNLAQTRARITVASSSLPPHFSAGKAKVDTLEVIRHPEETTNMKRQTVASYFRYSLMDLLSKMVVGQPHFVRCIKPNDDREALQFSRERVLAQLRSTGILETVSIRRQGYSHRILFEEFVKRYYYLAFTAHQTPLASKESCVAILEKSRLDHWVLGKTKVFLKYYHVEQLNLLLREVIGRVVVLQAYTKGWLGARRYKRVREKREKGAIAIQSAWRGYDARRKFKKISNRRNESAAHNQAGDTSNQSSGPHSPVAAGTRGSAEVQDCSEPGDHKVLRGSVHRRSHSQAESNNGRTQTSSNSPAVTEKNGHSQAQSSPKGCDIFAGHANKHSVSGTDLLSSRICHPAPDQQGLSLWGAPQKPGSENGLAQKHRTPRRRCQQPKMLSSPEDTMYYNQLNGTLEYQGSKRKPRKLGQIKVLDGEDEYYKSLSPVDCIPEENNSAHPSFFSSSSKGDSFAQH
FGFR1 (human), sequence (P11362 whole entry, looked up): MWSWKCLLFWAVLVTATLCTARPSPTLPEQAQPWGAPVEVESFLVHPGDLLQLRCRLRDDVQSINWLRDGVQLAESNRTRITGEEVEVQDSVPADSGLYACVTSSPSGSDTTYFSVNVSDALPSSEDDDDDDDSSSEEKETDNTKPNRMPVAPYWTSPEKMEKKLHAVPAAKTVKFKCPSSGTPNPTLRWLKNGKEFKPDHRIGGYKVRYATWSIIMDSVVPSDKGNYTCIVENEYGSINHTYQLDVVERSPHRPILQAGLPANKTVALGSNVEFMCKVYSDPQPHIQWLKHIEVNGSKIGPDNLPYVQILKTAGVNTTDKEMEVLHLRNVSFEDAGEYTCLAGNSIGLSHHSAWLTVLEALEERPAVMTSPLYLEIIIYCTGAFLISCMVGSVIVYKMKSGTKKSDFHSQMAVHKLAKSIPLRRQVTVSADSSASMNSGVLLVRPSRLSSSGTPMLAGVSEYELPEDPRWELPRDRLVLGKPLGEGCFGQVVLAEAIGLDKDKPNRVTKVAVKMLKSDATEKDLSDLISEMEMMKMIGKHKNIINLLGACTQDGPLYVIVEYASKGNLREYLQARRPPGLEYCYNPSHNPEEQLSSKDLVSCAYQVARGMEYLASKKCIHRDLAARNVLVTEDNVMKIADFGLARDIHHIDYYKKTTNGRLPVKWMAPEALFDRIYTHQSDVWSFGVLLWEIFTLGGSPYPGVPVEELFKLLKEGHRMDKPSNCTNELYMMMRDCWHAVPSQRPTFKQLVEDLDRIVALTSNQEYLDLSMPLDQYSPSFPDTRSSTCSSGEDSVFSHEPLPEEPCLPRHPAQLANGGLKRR

Row | Structure (SMILES) | kinase still bound, per cent of control (MAP2K1 (human)) | kinase still bound, per cent of control (FGFR1 (human)) | kinase still bound, per cent of control (MYO3B (human)) | kinase still bound, per cent of control (FLT1 (human)) | kinase still bound, per cent of control (IGF1R (human)) | kinase still bound, per cent of control (PIK3C2B (human)) | kinase still bound, per cent of control (ITK (human)) | kinase still bound, per cent of control (DAPK2 (human)) | kinase still bound, per cent of control (CDK3 (human)) | kinase still bound, per cent of control (CAMK4 (human)) | kinase still bound, per cent of control (CAMK1D (human)) | kinase still bound, per cent of control (MAP3K5 (human)) | kinase still bound, per cent of control (PRKD1 (human)) | kinase still bound, per cent of control (HIPK1 (human)) | kinase still bound, per cent of control (SLK (human)) | kinase still bound, per cent of control (PRKAA1 (human)) | kinase still bound, per cent of control (MUSK (human)) | kinase still bound, per cent of control (EPHA2 (human)) | kinase still bound, per cent of control (BMPR2 (human)) | kinase still bound, per cent of control (CLK1 (human)) | also measured
1 | CCN1CCN(Cc2ccc(Nc3ncc4c(n3)N(C)c3ccccc3C(=O)N4C)cc2C(F)(F)F)CC1 | 86% | 17% | 100% | 100% | 100% | 71% | 100% | 70% | 100% | 100% | 76% | 100% | 17% | 78% | 2.4% | 2.4% | 100% | 83% | 91% | 86% | kinase still bound, per cent of control (PRKD2 (human)): 25%; kinase still bound, per cent of control (TXK (human)): 34%; kinase still bound, per cent of control (ULK3 (human)): 7.4%; kinase still bound, per cent of control (MERTK (human)): 48%; kinase still bound, per cent of control (INSR (human)): 92%; kinase still bound, per cent of control (LATS2 (human)): 91%; kinase still bound, per cent of control (RPS6KA1 KD1 (human)): 100%; kinase still bound, per cent of control (CLK2 (human)): 39%; kinase still bound, per cent of control (DCLK3 (human)): 68%; kinase still bound, per cent of control (PKN2 (human)): 55%; kinase still bound, per cent of control (MAP2K3 (human)): 74%; kinase still bound, per cent of control (CHUK (human)): 100%; kinase still bound, per cent of control (MAP3K10 (human)): 100%; kinase still bound, per cent of control (RPS6KA6 KD1 (human)): 19%; kinase still bound, per cent of control (STK32B (human)): 100%; kinase still bound, per cent of control (CHEK1 (human)): 57%; kinase still bound, per cent of control (CAMK1G (human)): 61%; kinase still bound, per cent of control (FGR (human)): 26%; kinase still bound, per cent of control (ROCK2 (human)): 100%; kinase still bound, per cent of control (MKNK2 (human)): 0.2%
2 | Cn1c(=O)n(-c2ccc(C(C)(C)C#N)cc2)c2c3cc(-c4cnc5ccccc5c4)ccc3ncc21 | 100% | 100% | 100% | 100% | 100% | 2.8% | 100% | 100% | 100% | 100% | 100% | 100% | 100% | 100% | 100% | 100% | 100% | 100% | 100% | 23% | kinase still bound, per cent of control (PRKD2 (human)): 100%; kinase still bound, per cent of control (TXK (human)): 100%; kinase still bound, per cent of control (ULK3 (human)): 100%; kinase still bound, per cent of control (MERTK (human)): 100%; kinase still bound, per cent of control (INSR (human)): 100%; kinase still bound, per cent of control (LATS2 (human)): 100%; kinase still bound, per cent of control (RPS6KA1 KD1 (human)): 100%; kinase still bound, per cent of control (CLK2 (human)): 100%; kinase still bound, per cent of control (DCLK3 (human)): 100%; kinase still bound, per cent of control (PKN2 (human)): 100%; kinase still bound, per cent of control (MAP2K3 (human)): 100%; kinase still bound, per cent of control (CHUK (human)): 100%; kinase still bound, per cent of control (MAP3K10 (human)): 100%; kinase still bound, per cent of control (RPS6KA6 KD1 (human)): 100%; kinase still bound, per cent of control (STK32B (human)): 100%; kinase still bound, per cent of control (CHEK1 (human)): 100%; kinase still bound, per cent of control (CAMK1G (human)): 100%; kinase still bound, per cent of control (FGR (human)): 100%; kinase still bound, per cent of control (ROCK2 (human)): 100%; kinase still bound, per cent of control (MKNK2 (human)): 100%
